What was measured:
HL-60(TB) = assay: Anticancer activity, SRB assay, leukemia cell line HL-60(TB); assay type: cell-based; settings: Homo sapiens; Leukemia HL-60(TB); 48 h continuous drug exposure; read-out: Growth Inhibition GI50
Procedure: (§1) Some of biological activity studies were carried out at the National Cancer Institute (NCI), Maryland, USA.
(§2) The compounds were evaluated for anticancer activity against sixty human cancer cells derived from nine cancer types (leukemia cell line, non-small-cell lung cell line, colon cell line, CNS cell line, melanoma cell line, ovarian cell line, prostate cell line, renal cell line and breast cancer cell line) as shown in Table 1. For each compound, dose response curves for each cell line were measured at a minimum of five concentrations at 10 fold dilutions. A protocol of 48 h continuous drug exposure was used and a sulforhodamine B (SRB) protein assay was used to estimate cell viability or growth.

HOP-92 = assay: Anticancer activity, SRB assay, non-small lung cell line HOP-92; assay type: cell-based, human; settings: Homo sapiens; Non-small lung HOP-92; 48 h continuous drug exposure; —^b means GI50 values not attained at the concentrations used; read-out: Growth Inhibition GI50
Procedure: as §1, §2

NCI-H226 = assay: Anticancer activity, SRB assay, non-small lung cell line NCI-H226; assay type: cell-based, human; settings: Homo sapiens, NCI-H226; Non-small lung NCl-H226; 48 h continuous drug exposure; —^b means GI50 values not attained at the concentrations used; read-out: Growth Inhibition GI50
Procedure: as §1, §2

HCC-2998 = assay: Anticancer activity, SRB assay, colon cell line HCC-2998; assay type: cell-based, human; settings: Homo sapiens; Colon HCC-2998; 48 h continuous drug exposure; —^b means GI50 values not attained at the concentrations used; read-out: Growth Inhibition GI50
Procedure: as §1, §2

HCT-116 = assay: Anticancer activity, SRB assay, colon cell line HCT-116; assay type: cell-based; settings: Homo sapiens; Colon HCT-116; 48 h continuous drug exposure; read-out: Growth Inhibition GI50
Procedure: as §1, §2

KM12 = assay: Anticancer activity, SRB assay, colon cell line KM12; assay type: cell-based; settings: Homo sapiens, 48 h continuous drug exposure, read-out: Growth Inhibition GI50
Procedure: as §1, §2

SW-620 = assay: Anticancer activity, SRB assay, colon cell line SW-620; assay type: cell-based; settings: Homo sapiens; Colon SW-620; 48 h continuous drug exposure; read-out: Growth Inhibition GI50
Procedure: as §1, §2

OVCAR-4 = assay: Anticancer activity, SRB assay, ovarian cell line OVCAR-4; assay type: cell-based, human; settings: Homo sapiens; Ovarian OVCAR-4; 48 h continuous drug exposure; —^b means GI50 values not attained at the concentrations used; read-out: Growth Inhibition GI50
Procedure: as §1, §2

SK-OV-3 = assay: Anticancer activity, SRB assay, ovarian cell line SK-OV-3; assay type: cell-based, human; settings: Homo sapiens; Ovarian SK-OV-3; 48 h continuous drug exposure; —^b means GI50 values not attained at the concentrations used; read-out: Growth Inhibition GI50
Procedure: as §1, §2

CAKI-1 = assay: Anticancer activity, SRB assay, renal cell line CAKI-1; assay type: cell-based; settings: Homo sapiens; Renal CAKI-1; 48 h continuous drug exposure; read-out: Growth Inhibition GI50
Procedure: as §1, §2

UO-31 = assay: Anticancer activity, SRB assay, renal cell line UO-31; assay type: cell-based, human; settings: Homo sapiens; Renal UO-31; 48 h continuous drug exposure; —^b means GI50 values not attained at the concentrations used; read-out: Growth Inhibition GI50
Procedure: as §1, §2

MCF7 = assay: Anticancer activity, SRB assay, breast cell line MCF7; assay type: cell-based; settings: Homo sapiens, 48 h continuous drug exposure, read-out: Growth Inhibition GI50
Procedure: as §1, §2

MDA-MB-231/ATCC = assay: Anticancer activity, SRB assay, breast cell line MDA-MB-231/ATCC; assay type: cell-based; settings: Homo sapiens; Breast MDA-MB-231/ATCC; 48 h continuous drug exposure; read-out: Growth Inhibition GI50
Procedure: as §1, §2

HS 578T = assay: Anticancer activity, SRB assay, breast cell line HS 578T; assay type: cell-based, human; settings: Homo sapiens; Breast HS 578T; 48 h continuous drug exposure; —^b means GI50 values not attained at the concentrations used; read-out: Growth Inhibition GI50
Procedure: as §1, §2

SK-MEL-2 = assay: Anticancer activity, SRB assay, melanoma cell line SK-MEL-2; assay type: cell-based, human; settings: Homo sapiens; Melanoma SK-MEL-2; 48 h continuous drug exposure; —^b means GI50 values not attained at the concentrations used; read-out: Growth Inhibition GI50
Procedure: as §1, §2

SK-MEL-28 = assay: Anticancer activity, SRB assay, melanoma cell line SK-MEL-28; assay type: cell-based, human; settings: Homo sapiens; Melanoma SK-MEL-28; 48 h continuous drug exposure; —^b means GI50 values not attained at the concentrations used; read-out: Growth Inhibition GI50
Procedure: as §1, §2

SK-MEL-5 = assay: Anticancer activity, SRB assay, melanoma cell line SK-MEL-5; assay type: cell-based; settings: Homo sapiens; Melanoma SK-MEL-5; 48 h continuous drug exposure; read-out: Growth Inhibition GI50
Procedure: as §1, §2

UACC-257 = assay: Anticancer activity, SRB assay, melanoma cell line UACC-257; assay type: cell-based; settings: Homo sapiens; Melanoma UACC-257; 48 h continuous drug exposure; read-out: Growth Inhibition GI50
Procedure: as §1, §2

[1] = tested on: six leukemia cancer cell lines (CCRF-CEM, HL-60, K-562, MOLT-4, SR and RPMI-8226); assay: Anticancer activity, SRB assay, leukemia panel; assay type: cell-based, human
Procedure: as §1, §2

[2] = tested on: seven colon cancer cell line (COLO 205, HCC-2998, HCT-116, HCT-15, HT29, KM12 and SW-620); assay: Anticancer activity, SRB assay, colon panel; assay type: cell-based, human
Procedure: as §1, §2

[3] = tested on: six CNS cancer cell line (SF-268, SF-295, SF-539, SNB-19, SNB-75 and U251); assay: Anticancer activity, SRB assay, CNS panel; assay type: cell-based, human
Procedure: as §1, §2

[4] = tested on: seven ovarian cancer cell lines (IGROV1, OVCAR-3, OVCAR-4, OVCAR-5, OVCAR-8, NCI/ADR-RES and SK-OV-3); assay: Anticancer activity, SRB assay, ovarian panel; assay type: cell-based, human
Procedure: as §1, §2

[5] = tested on: eight renal cancer cell line (786-0, A498, ACHN, CAKI-1, SN12C, TK-10, UO-31 and RXF 393); assay: Anticancer activity, SRB assay, renal panel; assay type: cell-based, human; parameters: mean graph midpoint values (MG_MID) of Log10LC50 / mean graph midpoint values (MG_MID) of log10 TGI (Log10TGI50): unit not given here
Procedure: as §1, §2

[6] = tested on: sixty human cancer cell lines derived from nine cancer types; assay: Anticancer activity against sixty human cancer cell lines; assay type: cell-based
Procedure: as §1, §2

In the case of `Cc1cc(C#Cc2ccccc2)ccc1-n1c(/C=C/c2cc(O)ccc2O)nc2ccccc2c1=O` [Compound 4c, (E)-2-(2,5-Dihydroxystyryl)-3-(2-methyl-4-(phenylethynyl)phenyl)quinazolin-4(3H)-one], the GI50 (HL-60(TB)) is reported as 634 nM, the GI50 (HOP-92) is reported as 1540 nM and the GI50 (NCI-H226) is reported as 1520 nM. It also gave a GI50 (HCC-2998) of 1360 nM, a GI50 (HCT-116) of 1460 nM and a GI50 (KM12) of 1650 nM. The GI50 (SW-620) was 1710 nM, the GI50 (OVCAR-4) was 2400 nM and the GI50 (SK-OV-3) was 1830 nM. For the same compound, the GI50 (CAKI-1) was 2150 nM, the GI50 (UO-31) was 1160 nM and the GI50 (MCF7) was 1450 nM. The GI50 (MDA-MB-231/ATCC) was 1560 nM, the GI50 (HS 578T) was 1540 nM and the GI50 (SK-MEL-2) was 1400 nM. It also gave a GI50 (SK-MEL-28) of 1530 nM, a GI50 (SK-MEL-5) of 1350 nM and a GI50 (UACC-257) of 1560 nM. The GI50 ([1]; Homo sapiens, six leukemia cancer cell lines, exposure period of at least 48 h, read-out: GI50 (range over the panel)) was 634 to 1540 nM, the “mean graph midpoint values (MG_MID) of log10 TGI (Log10TGI50)” value (“mean graph midpoint values … (Log10TGI50)” for short) ([1]; Leukemia, log value of concentration of the compound resulting in total inhibition of net cell growth) was −5.38 and the “mean graph midpoint values (MG_MID) of Log10LC50” value ([1]; Leukemia, log value of the concentration of compounds leading to 50% net cell death) was −4.40. For the same compound, the “mean graph midpoint values (MG_MID) of Log10GI50” value ([1]; Leukemia, log values of concentration in mol/L causing 50% inhibition of net cell growth) was −5.94 mol/L, the “mean graph midpoint values … (Log10TGI50)” value ([2]; Colon, log value of concentration of the compound resulting in total inhibition of net cell growth) was −5.53 and the “mean graph midpoint values (MG_MID) of Log10LC50” value ([2]; Colon, log value of the concentration of compounds leading to 50% net cell death) was −5.23. For the same compound, the “mean graph midpoint values (MG_MID) of Log10GI50” value ([2]; Colon, log values of concentration in mol/L causing 50% inhibition of net cell growth) was −5.83 mol/L, the GI50 ([2]; Homo sapiens, seven colon cancer cell line, exposure period of at least 48 h, read-out: GI50 (range over the panel)) was 1030 to 1950 nM and the “mean graph midpoint values … (Log10TGI50)” value ([3]; CNS, log value of concentration of the compound resulting in total inhibition of net cell growth) was −5.50. The “mean graph midpoint values (MG_MID) of Log10LC50” value ([3]; CNS, log value of the concentration of compounds leading to 50% net cell death) was −5.15, the “mean graph midpoint values (MG_MID) of Log10GI50” value ([3]; CNS, log values of concentration in mol/L causing 50% inhibition of net cell growth) was −5.85 mol/L and the GI50 ([3]; Homo sapiens, six CNS cancer cell line, exposure period of at least 48 h, read-out: GI50 (range over the panel)) was 1300 to 1620 nM. For the same compound, the GI50 ([4]; Homo sapiens, seven ovarian cancer cell lines, exposure period of at least 48 h, read-out: GI50 (range over the panel)) was 1390 to 2450 nM, the “mean graph midpoint values … (Log10TGI50)” value ([4]; Ovarian, log value of concentration of the compound resulting in total inhibition of net cell growth) was −5.31 and the “mean graph midpoint values (MG_MID) of Log10LC50” value ([4]; Ovarian, log value of the concentration of compounds leading to 50% net cell death) was −4.61. The “mean graph midpoint values (MG_MID) of Log10GI50” value ([4]; Ovarian, log values of concentration in mol/L causing 50% inhibition of net cell growth) was −5.72 mol/L, the GI50 ([5]; Homo sapiens, eight renal cancer cell line, exposure period of at least 48 h, read-out: in vitro anticancer activity (range over the panel)) was 370 to 2150 nM and the “mean graph midpoint values … (Log10TGI50)” value ([5]; Renal, log value of concentration of the compound resulting in total inhibition of net cell growth) was −5.43. The “mean graph midpoint values (MG_MID) of Log10LC50” value ([5]; Renal, log value of the concentration of compounds leading to 50% net cell death) was −4.93, the “mean graph midpoint values (MG_MID) of Log10GI50” value ([5]; Renal, log values of concentration in mol/L causing 50% inhibition of net cell growth) was −5.86 mol/L and the “in vitro anticancer activity (in words)” value [6] was “exhibiting an in vitro anticancer activity”.
